The values that follow come from paper PMC9598656, “In Vitro Activity of Robenidine Analogues NCL259 and NCL265 against Gram-Negative Pathogens” (Antibiotics, 2022).

In experiment [1] the test system is E. coli BW 25113 (∆AcrB). Description: MIC, efflux-pump mutant. It is filed as cell-based, Escherichia coli. The settings on record: Escherichia coli, read-out: MIC Values. On the procedure: (§1) A variety of Gram-negative reference strains (E. coli ATCC 25922, E. coli ATCC 10763, P. aeruginosa PAO1, P. aeruginosa ATCC 27853, A. baumannii ATCC 12457, A. baumannii ATCC 19606, K. pneumoniae ATCC 4352 and K. pneumoniae ATCC 33495) were used for initial screening and combination testing with PMB. The organisms were speciated using biochemical testing and MALDI-TOF mass spectrometry (Bruker, Preston, VIC, Australia). Activity testing of NCL259 and NCL265 was also carried out on 51 extraintestinal clinical E. coli isolates from companion animals, and 83 porcine and bovine enterotoxigenic E. coli (ETEC) isolates from the Australian Centre for Antimicrobial Resistance Ecology collection. E. coli wild-type (BW 25113) and its mutant BW 25113∆AcrB, in which the inner membrane component AcrB of the tripartite multidrug efflux system AcrA/AcrB/TolC has been deleted, were obtained from the bacterial collection held at Health and Biomedical Innovation, Clinical and Health Sciences, The University of South Australia. All isolates were cultured on sheep blood agar (SBA) plates at 37 °C for 18 h before being subcultured into Luria Bertaini (LB) (Oxoid, Scoresby, VIC, Australia) broth and grown to A600nm = 0.5 (equivalent to approx. 1.5 × 10^8 colony-forming units (CFU)/mL).
(§2) MICs for NCL259 and NCL265 (serial two-fold dilutions commencing at 256 µg/mL) were determined (in duplicate) in round bottom 96–well microtitre trays (Sarstedt 82.1582.001), using the broth micro-dilution method recommended by the Clinical and Laboratory Standards Institute (CLSI). We have shown previously that robenidine can chelate calcium ions from cation-adjusted Mueller-Hinton broth, which causes the loss of activity of robenidine. Therefore, LB broth was used in this study. Additionally, considering the low solubility of robenidine and its analogues in aqueous solutions, two-fold serial dilutions of stock solutions of these compounds were prepared in 100% DMSO [21]. The MIC for ampicillin against each isolate was determined for each test to serve as an internal quality control. The MICs of isolates were determined by visual reading and using an EnSpire Multimode Plate Reader 2300 at A600nm.

Experiment [2] deals with Wild-type (E. coli BW 25113). Description: MIC, efflux-pump wild-type. It is filed as cell-based. The settings on record: Escherichia coli; Wild-type (E. coli BW 25113); read-out: MIC Values. On the procedure:
as §1
as §2, with “Additionally, considering the low solubility of robenidine and its analogues in aqueous solutions, two-fold serial dilutions of stock solutions of these compounds were prepared in 100% DMSO [21].” left out

Experiment [3] has as its system E. coli ATCC 10763. Description: Checkerboard assay with PMB. It is filed as cell-based, Escherichia coli. On the procedure: (§3) MICs of NCL259 or NCL265 in the presence of the efflux pump inhibitor, PAβN were determined using a checkerboard assay. […] Briefly, a two-fold serial dilution of each antimicrobial solution was prepared in its appropriate solvent (e.g., DMSO for robenidine analogues and Milli-Q water for PAβN), and 1 μL of each dilution was added from wells 12 to 3 (12.8–0.25 μg/mL for robenidine analogues, and 32–2 μg/mL for PAβN). Thereafter, 89 μL of LB broth was added to each well followed by the addition of 10 μL of bacterial suspension (1–5 × 10^6 CFU/mL) to each well. In this manner, the final concentration of DMSO in each well was 1%. The plate was subsequently incubated at 37 °C for 24 h. The resazurin assay was used for assessment of drug susceptibility of NCL259 and NCL265 (Supplementary Table S1–S6). The same method was also used to test the MICs of NCL259 or NCL265 in the presence of PMB against a range of Gram-negative reference strains (E. coli ATCC 25922, E. coli ATCC 10763, P. aeruginosa PAO1, P. aeruginosa ATCC 27853, A. baumannii ATCC 12457, A. baumannii ATCC 19606, K. pneumoniae ATCC 4352 and K. pneumoniae ATCC 33495). Stock solutions were prepared prior to use (25.6–0.25 mg/mL for robenidine analogues; 12.8–0.25 mg/mL for PMB). The interaction of two antibiotics was calculated as the fractional inhibitory concentration index (FICI) using the following formula:(1) FICI=MICA in combination/MICA alone+MICB in combination/MICB alone where A is NCL259 or NCL265 and B is PAβN or PMB. According to FICI calculations, the interaction between two compounds were interpreted as follows: synergistic (FICI ≤ 0.5); additive or partially synergistic (0.5 < FICI ≤ 1); indifferent (1 < FICI ≤ 4); and antagonistic (FICI > 4), as described previously. The dose reduction index (DRI) was used to describe the difference between the effective doses of NCL259 or NCL265 in combination with PMB or PAβN in comparison to their individual doses, using the following formula:(2) DRI=MICA alone/MICA in combination
(§4) Evaluation of DRI is important clinically because it can allow the dose of a potentially toxic drug to be lowered in combination with another compound without reducing the drug’s efficacy. A DRI higher than 1 is viewed as beneficial.

Experiment [4] has as its system E. coli ATCC 25922. Description: Checkerboard assay with PMB. It is filed as cell-based, Escherichia coli. On the procedure:
as §3, §4

The test system of experiment [5] is K. pneumoniae ATCC 33495. Description: Checkerboard assay with PMB. It is filed as cell-based, Klebsiella pneumoniae. The method, then:
as §3, §4

Experiment [6] has as its system K. pneumoniae ATCC 4352. Description: Checkerboard assay with PMB. It is filed as cell-based, Klebsiella pneumoniae. The method, then: as §3, §4
Experiment [7] concerns E. coli ATCC 10763. Description: MIC, broth micro-dilution. It is filed as cell-based, Escherichia coli. The settings on record: E. coli ATCC 10763. The method, then: as §1, §2
For experiment [8], the system named is E. coli ATCC 25922. Description: MIC, broth micro-dilution. It is filed as cell-based, Escherichia coli. On the procedure:
as §1, §2

The test system of experiment [9] is A. baumannii ATCC 19606. Description: Checkerboard assay with PMB. It is filed as cell-based, Acinetobacter baumannii. The method, then: as §3, §4
For experiment [10], the system named is A. baumannii ATCC 12457. Description: Checkerboard assay with PMB. It is filed as cell-based, Acinetobacter baumannii. On the procedure:
as §3, §4

Experiment [11] has as its system P. aeruginosa ATCC 27853. Description: Checkerboard assay with PMB. It is filed as cell-based, Pseudomonas aeruginosa. On the procedure: as §3, §4
Experiment [12] relates to P. aeruginosa PAO1. Description: Checkerboard assay with PMB. It is filed as cell-based, Pseudomonas aeruginosa. On the procedure:
as §3, §4

Experiment [13] deals with A. baumannii ATCC 19606. Description: MIC, broth micro-dilution. It is filed as cell-based, Acinetobacter baumannii. On the procedure:
as §1, §2

Experiment [14] relates to A. baumannii ATCC 12457. Description: MIC, broth micro-dilution. It is filed as cell-based, Acinetobacter baumannii. The method, then: as §1, §2
For experiment [15], the system named is K. pneumoniae ATCC 33495. Description: MIC, broth micro-dilution. It is filed as cell-based, Klebsiella pneumoniae. The settings on record: K. pneumoniae ATCC 33495. On the procedure: as §1, §2
In experiment [16] the test system is K. pneumoniae ATCC 4352. Description: MIC, broth micro-dilution. It is filed as cell-based, Klebsiella pneumoniae. The method, then: as §1, §2
Experiment [17] deals with P. aeruginosa ATCC 27853. Description: MIC, broth micro-dilution. It is filed as cell-based, Pseudomonas aeruginosa. The method, then: as §1, §2
Experiment [18] has as its system P. aeruginosa PAO1. Description: MIC, broth micro-dilution. It is filed as cell-based, Pseudomonas aeruginosa. On the procedure:
as §1, §2

Consider `CC[C@H]1OC(=O)[C@H](C)[C@@H](O[C@H]2C[C@@](C)(OC)[C@@H](O)[C@H](C)O2)[C@H](C)[C@@H](O[C@@H]2O[C@H](C)C[C@H](N(C)C)[C@H]2O)[C@](C)(O)C[C@@H](C)C(=O)[C@H](C)[C@@H](O)[C@]1(C)O` [Erythromycin, reference compound], for which the MIC is 2 µg/mL in experiment [1] and over 128 µg/mL in experiment [2].

Consider polymyxin B [PMB, reference compound], for which the “Dose Reduction Index (DRI) PMB:NCL259” value in experiment [3] (PMB + NCL259) is on record as 2; in experiment [4] (PMB + NCL259), 2; in [5] (PMB + NCL259) it was 2; in experiment [6] (PMB + NCL259), 4; in [9] (PMB + NCL259), 2; in experiment [10] (PMB + NCL259) it was 2. Moreover, the “Dose Reduction Index (DRI) PMB:NCL259” value in [11] (PMB + NCL259) and in experiment [12] (PMB + NCL259) was 2 in each case. For the same compound, the “Dose Reduction Index (DRI) PMB:NCL265” value was 4 in [3] (PMB + NCL265); 2 in experiment [4] (PMB + NCL265); 4 in experiment [5] (PMB + NCL265); 4:4 in [6] (PMB + NCL265); 2 in experiment [9] (PMB + NCL265); 2 in experiment [10] (PMB + NCL265). For the same compound, the “Dose Reduction Index (DRI) PMB:NCL265” value in [11] (PMB + NCL265) and in experiment [12] (PMB + NCL265) was 2 each time. The “MIC, Combination” value in experiment [4] (NCL259 or NCL265 with PMB) came to 0.25 µg/mL; in experiment [6] (NCL259 or NCL265 with PMB), 0.25 µg/mL; in experiment [9] (NCL259 or NCL265 with PMB), 0.5 µg/mL; in experiment [10] (NCL259 or NCL265 with PMB), 0.5 µg/mL; in [11] (NCL259 or NCL265 with PMB), 0.5 µg/mL; in [12] (NCL259 or NCL265 with PMB), 0.5 µg/mL. The “MIC, Single Drug” value in experiment [7] came out at 1 µg/mL; in experiment [8] it was 0.5 µg/mL; in experiment [13], 1 µg/mL; in experiment [14] it was 1 µg/mL; in experiment [15] it was 1 µg/mL; in experiment [16] it was 1 µg/mL. Besides, the “MIC, Single Drug” value in experiment [17] and in experiment [18] was 1 µg/mL in each case.
